These are literature values, as cited in patent publication US6022703A, “Expression of DNA sequences derived from nocardioform microorganisms” (Genzyme Corporation, priority 1993, dated 2000).

SMILES strings stand for the structures.

The subject of this data set is Nocardioform cholesterol oxidase. The settings on record: at 25°.

By Km is commonly meant the substrate concentration at which the rate is half of its maximum. As to `CC(C)CCC[C@@H](C)[C@H]1CC[C@H]2[C@@H]3CC=C4C[C@@H](O)CC[C@]4(C)[C@H]3CC[C@]12C` [cholesterol], the Km is 14 µM.
